Reference: patent publication US6274715A, “Tricyclic erythromycin derivatives” (priority 1997, dated 2001)
≈ marks a conversion by molar mass, not a printed value.

How the values were obtained:
Type in all cases: cell-based
[1] = tested on: STAPHYLOCOCCUS AUREUS ATCC 6538P; experiment: In vitro antibacterial activity, MIC, BHI agar dilution; conditions: S. aureus ATCC 6538P, 35-37° C., 20 to 24 hours, unit assumed
[2] = tested on: STAPHYLOCOCCUS AUREUS A5177; experiment: as above; conditions: S. aureus A5177, unit assumed
[3] = tested on: STAPHYLOCOCCUS AUREUS A-5278; experiment: as above; conditions: S. aureus A-5278, unit assumed
[4] = tested on: STAPHYLOCOCCUS AUREUS CMX 642A; experiment: as above; conditions: S. aureus CMX 642A, unit assumed
[5] = tested on: STAPHYLOCOCCUS AUREUS NCTC10649M; experiment: as above; conditions: S. aureus NCTC10649M, unit assumed
[6] = tested on: STAPHYLOCOCCUS AUREUS CMX 553; experiment: as above; conditions: S. aureus CMX 553, unit assumed
[7] = tested on: STAPHYLOCOCCUS AUREUS 1775; experiment: as above; conditions: S. aureus 1775, unit assumed
[8] = tested on: STAPHYLOCOCCUS EPIDERMIDIS 3519; conditions: S. epidermidis 3519; BHI agar; unit assumed
EN[…] ATCC 8043 = experiment: In vitro antibacterial activity, MIC, BHI agar dilution; conditions: E. faecium ATCC 8043, unit assumed
How it was run: (§1)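 BHI agar dilution: twelve plates with successive compound dilutions, inoculated by replicator with 1:100 culture dilutions (1:10 for slow growers such as Micrococcus and Streptococcus), 20 to 24 hours at 35-37° C. MIC was the lowest concentration giving no growth, slight haze or sparse isolated colonies versus drug-free control; erythromycin A as class reference.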

M[…] ATCC 4698 = experiment: as above; conditions: M. luteus ATCC 4698, unit assumed
How it was run: as §1

M[…] ATCC 9341 = experiment: as above; conditions: M. luteus ATCC 9341, unit assumed
How it was run: as §1

STR[…] 508 = experiment: as above; conditions: S. agalactiae CMX 508, unit assumed
How it was run: as §1

[9] = tested on: STREPTOCOCCUS BOVIS A-5169; experiment: as above; conditions: S. bovis A-5169, unit assumed
[10] = tested on: STREPTOCOCCUS PYOGENES EES61; experiment: as above; conditions: S. pyogenes EES61, unit assumed
[11] = tested on: STREPTOCOCCUS PYOGENES 930; experiment: as above; conditions: S. pyogenes 930, unit assumed
[12] = tested on: STREPTOCOCCUS PYOGENES PIU 2548; experiment: as above; conditions: S. pyogenes PIU 2548, unit assumed
ESCHERICHIA COLI JUHL = conditions: E. coli JUHL; BHI agar; unit assumed
ESCHERICHIA COLI SS = experiment: In vitro antibacterial activity, MIC, BHI agar dilution; conditions: E. coli SS, unit assumed
ESCHERICHIA COLI DC-2 = experiment: as above; conditions: E. coli DC-2, unit assumed
ESCHERICHIA COLI H560 = experiment: as above; conditions: E. coli H560, unit assumed
ESCHERICHIA COLI KNK 437 = conditions: E. coli KNK 437; BHI agar; unit assumed
[13] = tested on: ENTEROBACTER AEROGENES ATCC 13048; experiment: In vitro antibacterial activity, MIC, BHI agar dilution; conditions: E. aerogenes ATCC 13048, unit assumed
[14] = tested on: KLEBSIELLA PNEUMONIAE ATCC 8045; experiment: as above; conditions: K. pneumoniae ATCC 8045, unit assumed
[15] = tested on: PROVIDENCIA STUARTII CMX 640; conditions: P. stuartii CMX 640; BHI agar; unit assumed
[16] = tested on: PSEUDOMONAS AERUGINOSA BMH10; experiment: In vitro antibacterial activity, MIC, BHI agar dilution; conditions: P. aeruginosa BMH10, unit assumed
[17] = tested on: PSEUDOMONAS AERUGINOSA 5007; experiment: as above; conditions: P. aeruginosa 5007, unit assumed
[18] = tested on: PSEUDOMONAS AERUGINOSA K799/WT; experiment: as above; conditions: P. aeruginosa K799/WT, unit assumed
[19] = tested on: PSEUDOMONAS AERUGINOSA K799/61; experiment: as above; conditions: P. aeruginosa K799/61, unit assumed
PSEUDOMONAS CEPACIA 296I = experiment: as above; conditions: P. cepacia 296I, unit assumed
[20] = tested on: PSEUDOMONAS AERUGINOSA DPHD-5263; experiment: as above; conditions: P. aeruginosa DPHD-5263, unit assumed
[21] = tested on: PSEUDOMONAS AERUGINOSA DPHD-2862; experiment: as above; conditions: P. aeruginosa DPHD-2862, unit assumed
CANDIDA ALBICANS CCH 442 = experiment: as above; conditions: C. albicans CCH 442, unit assumed
[22] = tested on: MYCOBACTERIUM SMEGMATIS ATCC 114; experiment: as above; conditions: M. smegmatis ATCC 114, unit assumed

Compound	MIC [1] [µg/mL]	MIC [2] [µg/mL]	MIC [3] [µg/mL]	MIC [4] [µg/mL]	MIC [5] [µg/mL]	MIC [6] [µg/mL]	MIC [7] [µg/mL]	MIC [8] [µg/mL]	MIC (EN[…] ATCC 8043) [µg/mL]	MIC (M[…] ATCC 4698) [µg/mL]	MIC (M[…] ATCC 9341) [µg/mL]	MIC (STR[…] 508) [µg/mL]	MIC [9] [µg/mL]	MIC [10] [µg/mL]	MIC [11] [µg/mL]	MIC [12] [µg/mL]	MIC (ESCHERICHIA COLI JUHL) [µg/mL]	MIC (ESCHERICHIA COLI SS) [µg/mL]	MIC (ESCHERICHIA COLI DC-2) [µg/mL]	MIC (ESCHERICHIA COLI H560) [µg/mL]	further results
CC[C@H]1OC(=O)[C@H](C)C(=O)[C@H](C)[C@@H](O[C@@H]2O[C@H](C)C[C@H](N(C)C)[C@H]2O)[C@](C)(OC)C[C@@H](C)C2=NC3CNCC3N3C(=O)O[C@@]1(C)[C@H]3[C@H]2C (stereo partly drawn) [Example 109]	0.39 (≈ 0.574 µM)	0.39 (≈ 0.574 µM)	> 100	0.39 (≈ 0.574 µM)	0.39 (≈ 0.574 µM)	0.78 (≈ 1.15 µM)	> 100	0.39 (≈ 0.574 µM)	0.1 (≈ 0.147 µM)	0.2 (≈ 0.295 µM)	0.05 (≈ 0.0737 µM)	0.1 (≈ 0.147 µM)	0.05 (≈ 0.0737 µM)	0.05 (≈ 0.0737 µM)	> 100	0.78 (≈ 1.15 µM)	25 (≈ 36.8 µM)	0.2 (≈ 0.295 µM)	12.5 (≈ 18.4 µM)	6.2 (≈ 9.13 µM)	MIC (ESCHERICHIA COLI KNK 437): 25 µg/mL (≈ 36.8 µM); MIC [13]: 25 µg/mL (≈ 36.8 µM); MIC [14]: 25 µg/mL (≈ 36.8 µM); MIC [15]: > 100 µg/mL; MIC [16]: 50 µg/mL (≈ 73.7 µM); MIC [17]: > 100 µg/mL; MIC [18]: > 100 µg/mL; MIC [19]: 0.39 µg/mL (≈ 0.574 µM); MIC (PSEUDOMONAS CEPACIA 296I): > 100 µg/mL; MIC [20]: > 100 µg/mL; MIC [21]: > 100 µg/mL; MIC (CANDIDA ALBICANS CCH 442): > 100 µg/mL; MIC [22]: 3.1 µg/mL (≈ 4.57 µM)
CC[C@H]1OC(=O)[C@H](C)C(=O)[C@H](C)[C@@H](O[C@@H]2O[C@H](C)C[C@H](N(C)C)[C@H]2O)[C@](C)(OC)C[C@@H](C)C2=NC3CN(C)CC3N3C(=O)O[C@@]1(C)[C@H]3[C@H]2C (stereo partly drawn) [Example 114]	1.56 (≈ 2.25 µM)	0.78 (≈ 1.13 µM)	> 100	1.56 (≈ 2.25 µM)	1.56 (≈ 2.25 µM)	1.56 (≈ 2.25 µM)	> 100	1.56 (≈ 2.25 µM)	0.2 (≈ 0.289 µM)	1.56 (≈ 2.25 µM)	0.1 (≈ 0.144 µM)	0.1 (≈ 0.144 µM)	0.02 (≈ 0.0289 µM)	0.05 (≈ 0.0722 µM)	> 100	1.56 (≈ 2.25 µM)	100 (≈ 144 µM)	0.78 (≈ 1.13 µM)	100 (≈ 144 µM)	50 (≈ 72.2 µM)	MIC (ESCHERICHIA COLI KNK 437): 100 µg/mL (≈ 144 µM); MIC [13]: 100 µg/mL (≈ 144 µM); MIC [14]: > 100 µg/mL; MIC [15]: > 100 µg/mL; MIC [16]: > 100 µg/mL; MIC [17]: > 100 µg/mL; MIC [18]: > 100 µg/mL; MIC [19]: 6.2 µg/mL (≈ 8.95 µM); MIC (PSEUDOMONAS CEPACIA 296I): > 100 µg/mL; MIC [20]: > 100 µg/mL; MIC [21]: > 100 µg/mL; MIC (CANDIDA ALBICANS CCH 442): > 100 µg/mL; MIC [22]: 6.2 µg/mL (≈ 8.95 µM)
CC[C@H]1OC(=O)[C@H](C)C(=O)[C@H](C)[C@@H](O[C@@H]2O[C@H](C)C[C@H](N(C)C)[C@H]2O)[C@](C)(OC)C[C@@H](C)C2=NC3CN(CCc4ccc([N+](=O)[O-])cc4)CC3N3C(=O)O[C@@]1(C)[C@H]3[C@H]2C (stereo partly drawn) [Example 118]	0.39 (≈ 0.471 µM)	0.2 (≈ 0.242 µM)	> 100	0.39 (≈ 0.471 µM)	0.39 (≈ 0.471 µM)	0.39 (≈ 0.471 µM)	> 100	0.39 (≈ 0.471 µM)	0.2 (≈ 0.242 µM)	0.2 (≈ 0.242 µM)	0.05 (≈ 0.0604 µM)	0.02 (≈ 0.0242 µM)	≤ 0.005	0.05 (≈ 0.0604 µM)	> 100	0.78 (≈ 0.942 µM)	100 (≈ 121 µM)	0.78 (≈ 0.942 µM)	> 100	100 (≈ 121 µM)	MIC (ESCHERICHIA COLI KNK 437): > 100 µg/mL; MIC [13]: > 100 µg/mL; MIC [14]: > 100 µg/mL; MIC [15]: > 100 µg/mL; MIC [16]: > 100 µg/mL; MIC [17]: > 100 µg/mL; MIC [18]: > 100 µg/mL; MIC [19]: 0.78 µg/mL (≈ 0.942 µM); MIC (PSEUDOMONAS CEPACIA 296I): > 100 µg/mL; MIC [20]: > 100 µg/mL; MIC [21]: > 100 µg/mL; MIC (CANDIDA ALBICANS CCH 442): > 100 µg/mL; MIC [22]: 0.78 µg/mL (≈ 0.942 µM)
